Measured values taken from the supplement of paper PMC10307832.

Assays:
Experiment in all cases: relative viability (nuclei count vs DMSO), 5 days (fraction); higher = more cells survive
NCI-H1755 = system: NCI-H1755
Summary of the method: (§1)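 A single step with final 0.05% Triton X-100, 1% formaldehyde and 1 ug/ml Hoechst fixed the cells and stained nuclei 5 days after treatment. Lung cancer cell lines in 1536-well plates had been treated by pin tool the day after seeding with one drug alone or a fixed anchor-drug dose plus five library-drug doses (not always all listed) in √10 steps, and nuclei were counted on 4× images. Relative viability is the ratio of nuclei in treated wells to nuclei in vehicle wells, taken as the median of duplicate plates.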

PC-3 [JPC-3] = system: PC-3 [JPC-3]
Summary of the method: as §1

RERF-LC-KJ = system: RERF-LC-KJ
Summary of the method: as §1

LU99A = system: LU99A
Summary of the method: as §1

HCC-78 = system: HCC-78
Summary of the method: as §1

NCI-H3122 = system: NCI-H3122
Summary of the method: as §1

NCI-H1793 = system: NCI-H1793
Summary of the method: as §1

NCI-H1944 = system: NCI-H1944
Summary of the method: as §1

NCI-H1395 = system: NCI-H1395
Summary of the method: as §1

ChaGo-K-1 = system: ChaGo-K-1
Summary of the method: as §1

HCC-366 = system: HCC-366
Summary of the method: as §1

NCI-H2087 = system: NCI-H2087
Summary of the method: as §1

LOU-NH91 = system: LOU-NH91
Summary of the method: as §1

CAL-12T = system: CAL-12T
Summary of the method: as §1

NCI-H2405 = system: NCI-H2405
Summary of the method: as §1

NCI-H2228 = system: NCI-H2228
Summary of the method: as §1

LC-2-ad = system: LC-2-ad
Summary of the method: as §1

UMC-11 = system: UMC-11
Summary of the method: as §1

NCI-H2170 = system: NCI-H2170
Summary of the method: as §1

ABC-1 = system: ABC-1
Summary of the method: as §1

NCI-H1651 = system: NCI-H1651
Summary of the method: as §1

NCI-H460 = system: NCI-H460
Summary of the method: as §1

For `O=c1cc(-c2cccc3c2Sc2ccccc2S3)oc(N2CCOCC2)c1` + O=C(c1cc(Cc2n[nH]c(=O)c3ccccc23)ccc1F)N1CCN(C(=O)C2CC2)CC1 [Olaparib] (partner 8 µM), the relative viability (NCI-H1755; first compound 0.08 µM) was 0.843, the relative viability (NCI-H1755; first compound 0.253 µM) was 0.998 and the relative viability (NCI-H1755; first compound 0.8 µM) was 0.846. It also gave a relative viability (NCI-H1755; first compound 2.53 µM) of 0.884, a relative viability (NCI-H1755; first compound 8 µM) of 0.91 and a relative viability (PC-3 [JPC-3]; first compound 0.08 µM) of 1.13. For the same compound, the relative viability (PC-3 [JPC-3]; first compound 0.253 µM) was 1.01, the relative viability (PC-3 [JPC-3]; first compound 0.8 µM) was 0.95 and the relative viability (PC-3 [JPC-3]; first compound 2.53 µM) was 1.09. It also gave a relative viability (PC-3 [JPC-3]; first compound 8 µM) of 1.19, a relative viability (RERF-LC-KJ; first compound 0.08 µM) of 1.08 and a relative viability (RERF-LC-KJ; first compound 0.253 µM) of 1.07. For the same compound, the relative viability (RERF-LC-KJ; first compound 0.8 µM) was 0.9, the relative viability (RERF-LC-KJ; first compound 2.53 µM) was 0.977 and the relative viability (RERF-LC-KJ; first compound 8 µM) was 0.843. For the same compound, the relative viability (LU99A; first compound 0.08 µM) was 0.251, the relative viability (LU99A; first compound 0.253 µM) was 0.298 and the relative viability (LU99A; first compound 0.8 µM) was 0.296. For the same compound, the relative viability (LU99A; first compound 2.53 µM) was 0.245, the relative viability (LU99A; first compound 8 µM) was 0.214 and the relative viability (HCC-78; first compound 0.08 µM) was 0.792. It also gave a relative viability (HCC-78; first compound 0.253 µM) of 0.853, a relative viability (HCC-78; first compound 0.8 µM) of 0.935 and a relative viability (HCC-78; first compound 2.53 µM) of 0.839. For the same compound, the relative viability (HCC-78; first compound 8 µM) was 0.734, the relative viability (NCI-H3122; first compound 0.08 µM) was 0.658 and the relative viability (NCI-H3122; first compound 0.253 µM) was 0.745. It also gave a relative viability (NCI-H3122; first compound 0.8 µM) of 0.584, a relative viability (NCI-H3122; first compound 2.53 µM) of 0.604 and a relative viability (NCI-H3122; first compound 8 µM) of 0.63. It also gave a relative viability (NCI-H1793; first compound 0.08 µM) of 0.815, a relative viability (NCI-H1793; first compound 0.253 µM) of 1.08 and a relative viability (NCI-H1793; first compound 0.8 µM) of 0.899. For the same compound, the relative viability (NCI-H1793; first compound 2.53 µM) was 0.721, the relative viability (NCI-H1793; first compound 8 µM) was 0.63 and the relative viability (NCI-H1944; first compound 0.08 µM) was 0.401. It also gave a relative viability (NCI-H1944; first compound 0.253 µM) of 0.401, a relative viability (NCI-H1944; first compound 0.8 µM) of 0.414 and a relative viability (NCI-H1944; first compound 2.53 µM) of 0.43. For the same compound, the relative viability (NCI-H1944; first compound 8 µM) was 0.397, the relative viability (NCI-H1395; first compound 0.08 µM) was 0.404 and the relative viability (NCI-H1395; first compound 0.253 µM) was 0.416. For the same compound, the relative viability (NCI-H1395; first compound 0.8 µM) was 0.513, the relative viability (NCI-H1395; first compound 2.53 µM) was 0.471 and the relative viability (NCI-H1395; first compound 8 µM) was 0.47. The relative viability (ChaGo-K-1; first compound 0.08 µM) was 0.503, the relative viability (ChaGo-K-1; first compound 0.253 µM) was 0.494 and the relative viability (ChaGo-K-1; first compound 0.8 µM) was 0.415. For the same compound, the relative viability (ChaGo-K-1; first compound 2.53 µM) was 0.466, the relative viability (ChaGo-K-1; first compound 8 µM) was 0.411 and the relative viability (HCC-366; first compound 0.08 µM) was 0.421. It also gave a relative viability (HCC-366; first compound 0.253 µM) of 0.507, a relative viability (HCC-366; first compound 0.8 µM) of 0.406 and a relative viability (HCC-366; first compound 2.53 µM) of 0.483. For the same compound, the relative viability (HCC-366; first compound 8 µM) was 0.357, the relative viability (NCI-H2087; first compound 0.08 µM) was 0.604 and the relative viability (NCI-H2087; first compound 0.253 µM) was 0.605. The relative viability (NCI-H2087; first compound 0.8 µM) was 0.682, the relative viability (NCI-H2087; first compound 2.53 µM) was 0.638 and the relative viability (NCI-H2087; first compound 8 µM) was 0.561. The relative viability (LOU-NH91; first compound 0.08 µM) was 0.875, the relative viability (LOU-NH91; first compound 0.253 µM) was 0.945 and the relative viability (LOU-NH91; first compound 0.8 µM) was 0.866. For the same compound, the relative viability (LOU-NH91; first compound 2.53 µM) was 0.863, the relative viability (LOU-NH91; first compound 8 µM) was 0.917 and the relative viability (CAL-12T; first compound 0.08 µM) was 0.77. For the same compound, the relative viability (CAL-12T; first compound 0.253 µM) was 0.738, the relative viability (CAL-12T; first compound 0.8 µM) was 0.759 and the relative viability (CAL-12T; first compound 2.53 µM) was 0.731. It also gave a relative viability (CAL-12T; first compound 8 µM) of 0.402, a relative viability (NCI-H2405; first compound 0.08 µM) of 0.861 and a relative viability (NCI-H2405; first compound 0.253 µM) of 1.04. It also gave a relative viability (NCI-H2405; first compound 0.8 µM) of 0.791, a relative viability (NCI-H2405; first compound 2.53 µM) of 0.8 and a relative viability (NCI-H2405; first compound 8 µM) of 0.936. The relative viability (NCI-H2228; first compound 0.08 µM) was 0.691, the relative viability (NCI-H2228; first compound 0.253 µM) was 0.869 and the relative viability (NCI-H2228; first compound 0.8 µM) was 0.799. It also gave a relative viability (NCI-H2228; first compound 2.53 µM) of 0.83, a relative viability (NCI-H2228; first compound 8 µM) of 0.733 and a relative viability (LC-2-ad; first compound 0.08 µM) of 0.791. For the same compound, the relative viability (LC-2-ad; first compound 0.253 µM) was 0.83, the relative viability (LC-2-ad; first compound 0.8 µM) was 0.713 and the relative viability (LC-2-ad; first compound 2.53 µM) was 0.649. The relative viability (LC-2-ad; first compound 8 µM) was 0.64, the relative viability (UMC-11; first compound 0.08 µM) was 0.365 and the relative viability (UMC-11; first compound 0.253 µM) was 0.74. The relative viability (UMC-11; first compound 0.8 µM) was 0.325, the relative viability (UMC-11; first compound 2.53 µM) was 0.344 and the relative viability (UMC-11; first compound 8 µM) was 0.42. The relative viability (NCI-H2170; first compound 0.08 µM) was 0.585, the relative viability (NCI-H2170; first compound 0.253 µM) was 0.699 and the relative viability (NCI-H2170; first compound 0.8 µM) was 0.689. It also gave a relative viability (NCI-H2170; first compound 2.53 µM) of 0.641, a relative viability (NCI-H2170; first compound 8 µM) of 0.617 and a relative viability (ABC-1; first compound 0.08 µM) of 0.821. For the same compound, the relative viability (ABC-1; first compound 0.253 µM) was 0.718, the relative viability (ABC-1; first compound 0.8 µM) was 0.735 and the relative viability (ABC-1; first compound 2.53 µM) was 0.777. For the same compound, the relative viability (ABC-1; first compound 8 µM) was 0.75, the relative viability (NCI-H1651; first compound 0.08 µM) was 0.166 and the relative viability (NCI-H1651; first compound 0.253 µM) was 0.175. For the same compound, the relative viability (NCI-H1651; first compound 0.8 µM) was 0.184, the relative viability (NCI-H1651; first compound 2.53 µM) was 0.168 and the relative viability (NCI-H1651; first compound 8 µM) was 0.176. The relative viability (NCI-H460; first compound 0.08 µM) was 0.513, the relative viability (NCI-H460; first compound 0.253 µM) was 0.343 and the relative viability (NCI-H460; first compound 0.8 µM) was 0.454. The relative viability (NCI-H460; first compound 2.53 µM) was 0.451 and the relative viability (NCI-H460; first compound 8 µM) was 0.542.
